Results from a melting point compilation (Tetko et al.).

Row | SMILES | melting point [°C]
1 | CC(=O)c1cc(C(C)(C)C)c(O)c(C(C)(C)C)c1 | 147
2 | Cc1ccc(-c2ccc(C=C3C(=O)OC(C)(C)OC3=O)o2)cc1 | 166
3 | COc1cc(CCN)cc(OC)c1OC | 35.5
4 | N#Cc1c(F)c(F)cc(F)c1F | 34
5 | COC(=O)c1ccccc1CS(=O)(=O)NC(=O)Nc1nc(OC)cc(OC)n1 | 187
6 | Cc1ccc(C(=O)CBr)c(C)c1 | 44
7 | Nc1cc2c3ccccc3ccc2c2ccccc12 | 210
8 | O=C1/C(=C/c2ccc([N+](=O)[O-])cc2)SC(=S)N1CNc1ccc([N+](=O)[O-])cc1 | 189
9 | Cc1cc(-c2ccccc2)n2nc(C(F)(F)F)nc2n1 | 89
10 | CCOCN(C(=O)CCl)c1c(C)cccc1CC | 10.6
11 | CC1CCc2cc3c(cc2N1)CCC(C)N3C(=O)c1ccccc1 (stereo not given) | 145
12 | COC(=O)NS(=O)(=O)c1ccc(N)cc1 | 230
13 | CN(C)S(=O)(=O)Cl | -13
14 | C1CCCCCCCCCCCC1 | 23
15 | CCSCC[C@@H](N)C(=O)O | 278
16 | Brc1ccc2c(c1)OCCOCCOCCOCCO2 | 66 to 71
17 | NC(=O)C=Cc1ccc(C=CC(N)=O)cc1 | 320
18 | O=C1NC(=O)C(=Cc2cccc(C=C3C(=O)NC(=O)NC3=O)c2)C(=O)N1 | 340
19 | COc1ccc2c(c1)CC1(CCC(=O)CC1)C2=O | 93
20 | N#Cc1cccc(I)c1 | 40
21 | O=C1C=C(Cl)C(=O)C(Cl)=C1 | 123

Row | SMILES | melting point [°C]
22 | Cc1nn(-c2ccccc2)c(N)c1C#N | 129 to 131
23 | Nc1nnc(C2CCC2)[nH]1 | 153 to 155
24 | O=[N+]([O-])c1ccc(/C=C\c2ccccc2[N+](=O)[O-])cc1 | 138 to 139
25 | O=C(OCC(=O)N1CCC(O)CC1)c1ccccc1 | 122
26 | O=C(Cl)c1cc(C(=O)Cl)c([N+](=O)[O-])cc1[N+](=O)[O-] | 107
27 | Cc1ccc2c(c1C)CCC1C2CC=C2CC(C(=O)O)CCC21C (stereo not given) | 162
28 | Brc1nc(Br)c(Br)[nH]1 | 208 to 212
29 | N#Cc1c(F)cccc1I | 50
30 | CCCC(Cn1cncn1)c1ccc(Cl)cc1Cl (stereo not given) | 60.3
31 | CC(=O)Nc1ccc(C#Cc2ccc(NC(C)=O)cc2)cc1 | 281
32 | CC(C)CCCC(C)C1CCC2C3CC=C4CC(OC(=O)Cl)CCC4(C)C3CCC12C (stereo not given) | 118
33 | CCCCSP(SCCCC)SCCCC | 100
34 | c1c2c(cc3c1CCCC3)CCCC2 | 78
35 | COc1ccc(-n2ncc(C(=O)O)c2C)cc1 | 212 to 213
36 | CC12CCC3C(CCC4CC(O)(C#CCl)CCC43C)C1CCC2O (stereo not given) | 120
37 | COc1cc2c(cc1OC)C(C)=NCC2 | 103 to 106
38 | Cc1ccc(CCl)cc1[N+](=O)[O-] | 46 to 50
39 | N#CC(O)C(Cl)(Cl)Cl (stereo not given) | 61
40 | O=[N+]([O-])c1ccc2c(c1)=NC(=c1ccc(=C3N=c4cc([N+](=O)[O-])ccc4=C3O)cc1)C=2O | 360
41 | O=C(O)[C@@H]1CCCC[C@H]1C(=O)c1ccccc1 (relative stereo) | 150 to 153
42 | O=C(c1ccccc1)C(c1ccccc1)c1cc(Cl)c([N+](=O)[O-])cc1[N+](=O)[O-] (stereo not given) | 131

Row | SMILES | melting point [°C]
43 | Cc1ccc(S(=O)(=O)N[C@@H](c2ccccc2)[C@@H](N)c2ccccc2)cc1 | 127 to 130
44 | OC(c1ccc(Cl)cc1)(c1ccc(Cl)cc1)c1ccc(Cl)cc1 | 95.5
45 | CN(CC(=O)O)N=O | 66.5
46 | O=C1NC(=O)C(Cc2cccc(CC3C(=O)NC(=O)NC3=O)c2)C(=O)N1 | 272
47 | FC(F)(F)c1nnc2sc(=S)[nH]n12 | 160
48 | O=c1cc(C(F)(F)F)nc2scc(-c3ccc(Br)cc3)n12 | 171
49 | O=C(Nc1ccccc1/C=C/c1ccccc1)c1ccccc1 | 168
50 | BrC1C2CC3CC(C2)CC1C3 (stereo not given) | 139
51 | NC(=S)c1ccc2c(c1)OCO2 | 183 to 186
52 | CC12CCC(O)CC1CCC1C2C(O)CC2(C)C(C3=CC(=O)OC3)CCC12O (stereo not given) | 280
53 | Cc1ccc2cccc(C)c2c1 | -13.9
54 | Cc1cncc(Oc2cccc(N)c2)n1 | 59.5 to 61
55 | COP(=S)(OC)Oc1ccc([N+](=O)[O-])cc1Cl | 52.5
56 | C=C(C)CN(CC)c1c([N+](=O)[O-])cc(C(F)(F)F)cc1[N+](=O)[O-] | 55.5
57 | N#CC1(c2ccc(Cl)cc2)CCCCC1 | 88 to 92
58 | Nc1ncnc(Nc2ccccc2)n1 | 236
59 | CC1=CC(c2ccccc2)c2ccccc21 (stereo not given) | 61
60 | CC(=O)OC1CC[C@H]2[C@@H]3CCC4CC(=O)CC[C@]4(C)[C@H]3CC[C@]12C (stereo not given in full) | 146
61 | COC(=O)c1ccc(Oc2cccnc2)o1 | 78 to 79

Results, then the compound that gave them:

Row | melting point [°C] | SMILES
62 | -68 | CCCCOCCOCCO
63 | 85 | O=C(O)C(=S)Cc1cccc(CC(=S)C(=O)O)c1
64 | 120 | COC(=O)c1sc2c(c1N)CSc1ccc(Cl)cc1-2
65 | 190 | O=C(O)CN(CC(=O)O)Cc1cc2c(c(O)c1O)C(=O)c1ccccc1C2=O
66 | 46 to 48 | COC(=O)c1ccc(OC)c(OC)c1Cl
67 | -12 | C=C/C=C/C=C
68 | 91 to 94 | CCOC(OCC)C(N)=S
69 | 79 to 81 | COc1ccc([N+](=O)[O-])cc1C(F)(F)F
70 | 159 to 160 | COc1ccc(Cc2c(N)nn3c(C)cc(C)nc23)cc1
71 | 115 to 117 | Cc1csc(C(N)=O)c1
72 | 11 to 13 | Cc1nccnc1C
73 | 136 | CCCCNC(=O)n1cc(F)c(=O)[nH]c1=O
74 | 100 to 101 | O=C(Cl)c1ccc2c(c1)OCCO2
75 | 201 | CC(=O)C1C(=O)C2(C)CCC1C2(C)C (stereo not given)
76 | 88 | COC(=O)c1cc(Br)cc(Br)c1N
77 | 63 to 65 | CC(CSc1ccc(Cl)cc1)C(=O)O (stereo not given)
78 | 58 to 59 | NCc1cc2ccccc2s1
79 | 115 | COc1ccc(C(Cl)=C(c2ccc(OC)cc2)c2ccc(OC)cc2)cc1
80 | 82.7 | CCCCCCCCCCCCCC(=O)Oc1ccc(N=Cc2cccnc2)cc1
81 | -87 | COCC(C)OC(C)=O (stereo not given)
82 | 164 | O=C(O)C(Cc1cc(I)c(O)c(I)c1)c1ccccc1 (stereo not given)
83 | 49 | CCCCCCCCCCCCCCCCCN
84 | 70 to 72 | COC(=O)c1ccc(N2CCCCC2)nc1

Row | melting point [°C] | SMILES
85 | 175 to 178 | Cc1cc(C(=O)O)nn1C
86 | 112 to 115 | CC(=O)OCC1OC(C#N)=CC(OC(C)=O)C1OC(C)=O (stereo not given)
87 | 189 to 190 | CCOC(=O)C1=C(C)OC(N)=C(C#N)C1c1ccccc1 (stereo not given)
88 | 70 | COc1cc(O)c(C=O)c(OC)c1
89 | 187 | CCC(c1ccc(O)cc1)C(CC)c1ccc(O)cc1 (stereo not given)
90 | 189 to 191 | Cc1cc2c(N)cccc2nn1
91 | 46 to 48 | N#CCOc1ccc(Cl)cc1Cl
92 | 34 to 37 | COC(=O)Cc1cccc(OCc2ccccc2)c1
93 | 46 to 48 | Cc1onc(-c2ccccc2)c1C(=O)CBr
94 | 152 to 154 | COc1ccc(Cc2c(N)n[nH]c2N)cc1
95 | 100 | CCOC(=O)C(=Nn1nnc2ccccc21)C(=O)OCC
96 | -19 | CCCCCCOc1ccccc1
97 | 158 | CC(=O)OCN1C(=O)NC(c2ccccc2)(c2ccccc2)C1=O
98 | 183 | O=c1c(=O)c2cc(Cl)c(Cl)cc12
99 | 87 to 89 | N#CCC(=O)N1CCOCC1
100 | 3 to 5 | CC1=CC(=O)CC1
101 | 81 to 83 | BrCc1ccc(-n2cccn2)cc1
102 | 201 | Cc1nnc2sc(SCC(=O)O)nn2c1=O
103 | 83 | Cc1cc(N)on1
104 | 113 | OCC(CO)(CBr)CBr
105 | 91 | COc1ccc(Br)cc1C#N
106 | 149 | COc1ccc(C(=O)CCC(=O)O)cc1
107 | -60 | CCCCCCl

Row | melting point [°C] | SMILES
108 | 125 to 127 | Oc1ccc(O)c(C=NCCN=Cc2cc(O)ccc2O)c1
109 | 93 to 96 | COC(=O)c1csc(S(=O)(=O)Cl)c1OC
110 | 185 to 186 | CC1=CC(=O)C(C(=O)OC2CC(C)CCC2C(C)C)C(C)C1C(=O)OC1CC(C)CCC1C(C)C (stereo not given)
111 | 80 to 83 | COC(=O)C1=NC(C)(C)[N+]([O-])=C1
112 | 57 | Cc1ccc(Br)c(O)c1C(=O)O
113 | 56 | c1ccc(-c2ccncn2)cc1
114 | 110 | Cc1ccc(C(=O)O)o1
115 | 47.5 | CC#CCOS(=O)(=O)c1ccc(C)cc1
116 | 147 | CC(=O)Nc1ccc(Cl)cc1Cl
117 | 179 | O=NN(CC(c1ccccc1)c1ccccc1)CC(c1ccccc1)c1ccccc1
118 | 72 to 73 | Cc1nn(-c2ccccc2)nc1CBr
119 | 40 to 45 | CC1CC(=O)OC(=O)C1
120 | 83 to 84.5 | ClCc1ccc(-c2ncccn2)cc1
121 | 116 to 118 | OCc1snnc1-c1ccccc1
122 | 99 to 102 | CCOc1cc2c(cc1OCC)C(CC#N)NCC2 (stereo not given)
123 | 151 | CN(C)c1ccc(/C=C(\C#N)c2nc3ccccc3n2C)cc1
124 | 125 to 128 | O=C(O)CSCSCC(=O)O
125 | 151 to 152 | O=C(O)c1cccc(Cn2cccn2)c1
126 | 132 | COc1cc(N=Nc2c(Br)cc([N+](=O)[O-])cc2[N+](=O)[O-])c(NC(C)=O)c(N(CCOC(C)=O)CCOC(C)=O)c1
127 | 40.5 | Oc1ccc(C2CCCCC2)cc1Cl
128 | 191 | COc1ccc(-c2cc(=O)c3c(O)c(OC)c(OC)cc3o2)cc1O
129 | 301 to 303 | CCCCOc1ccc(/C=N/NC(=O)C(=O)N/N=C/c2ccc(OCCCC)cc2)cc1
130 | 124 to 126 | Cc1oc(C(=O)NN)nc1-c1ccccc1
